Test results taken from patent US12678384B2, “Sanitizing compositions containing ionic liquid” (CAGE BIO INC., priority 2020, dated 2026).
Where two headings read alike, the source gives them in different places.

Tests used:
[1] = test system: human Coronavirus strain 229E (hCoV229E) (ATCC #VR-740); details: for TCID10 (log10): 5% w/w in purified water, virus control 6.50; for CPE (cytopathic/cytotoxic effect), four replicate wells: 5% w/w
[2] = in vivo
Protocol: Distilled water was used as a negative control. The patches were removed by the subjects after 24 h and a new one was applied by the site staff at the same exact site at the next visit. The subjects reported to the site for a total of 9 visits, 3 each week. During each visit the application area was observed by the study investigator and a new patch was applied.
This cosmetic study was approved by an IRB and conducted by AMA Laboratories Inc. in New York. […] The application area was occluded with hypoallergenic tape. The subjects were required to keep the tape for 24 h. At each visit, the application site was evaluated for skin irritation on a 5-point scale (0-4). […] The subjects were then evaluated for any skin reactions after 24 and 48 h.

E. coli = assay: In vivo study of residual antimicrobial efficacy on finger taps (Example 7); details: finger taps inoculated with E. coli 30 min (controls) or 30 min, 1 hr, 2 hrs (test article) post application
Protocol: • 1) Wash hands with nonmedicated soap to remove surface dirt and oil, dried, and finally decontaminate with 70% isopropyl alcohol. Allow to air dry. • 2) Apply test article (Sanitizer A containing 5% CAGE) and controls (70% Alcohol and DI Water or 0.9% Sterile Saline Solution) on each finger tap to cover it completely. Let it dry. • 3) Inoculate the finger taps #1-3 with 10 μL of high-concentrated suspension of E. coli at 30 min of post-application. • 4) Wait for 60 sec (contact time) • 5) Tap the finger on the TSA agar plate and transfer plates #1-3 into the incubator set at 37° C. • 6) Apply 10 μL of inoculum on Finger #4 at 1 hr. of post application. • 7) Wait for 60 sec and tap the finger on the TSA agar plate. Transfer plate into the incubator set at 37° C. • 8) Apply 10 μL of inoculum on Finger #5 at 2 hrs of post application. • 9) Wait for 60 sec and tap the finger on the TSA agar plate. Transfer plate into the incubator set at 37° C. • 10) Observe bacterial growth after 24 hrs in incubator.

Molecule	TCID10 (log10) ([1]; 5 minutes exposure)	TCID10 (log10) ([1]; 10 minutes exposure)	CPE (cytopathic/cytotoxic effect), four replicate wells ([1]; 5 minutes exposure, dilution (−Log10) −3)	CPE (cytopathic/cytotoxic effect), four replicate wells ([1]; 5 minutes exposure, dilution (−Log10) −4)	CPE (cytopathic/cytotoxic effect), four replicate wells ([1]; 5 minutes exposure, dilution (−Log10) −5)	CPE (cytopathic/cytotoxic effect), four replicate wells ([1]; 5 minutes exposure, dilution (−Log10) −6)	CPE (cytopathic/cytotoxic effect), four replicate wells ([1]; 5 minutes exposure, dilution (−Log10) −7)	CPE (cytopathic/cytotoxic effect), four replicate wells ([1]; 10 minutes exposure, dilution (−Log10) −3)	CPE (cytopathic/cytotoxic effect), four replicate wells ([1]; 10 minutes exposure, dilution (−Log10) −4)	CPE (cytopathic/cytotoxic effect), four replicate wells ([1]; 10 minutes exposure, dilution (−Log10) −5)	CPE (cytopathic/cytotoxic effect), four replicate wells ([1]; 10 minutes exposure, dilution (−Log10) −6)	CPE (cytopathic/cytotoxic effect), four replicate wells ([1]; 10 minutes exposure, dilution (−Log10) −7)	other adverse events reported in the study [2]	sensitization response [2]	subjects showing any skin reactions in the first 3 visits (7-days) [2]	subjects that did not display any irritation throughout the entire 21-day study [2] [subjects]	subjects that experienced some skin irritation [2] [subjects]	microbial growth after 24 hrs at 37° C. (E. coli)
choline geranate [CG-101]	≤2.50	≤2.50	0000	0000	0000	0000	0000	0000	0000	0000	0000	0000	no other adverse events	did not create any sensitization response	None	43	8	–
CCO [70% Ethanol, Ethanol]	–	–	–	–	–	–	–	–	–	–	–	–	–	–	–	–	–	Microbial growth was observed
